Measured values reported in the supplement of paper PMC9013687.

Key:
Danio rerio embryo [1] = assay: EC50 Curvature_Increase
Experimental: (§1)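 Zebrafish embryos (UFZ-OBI strain) were exposed from 2 hpf for 48 h (2 dpf) or 96 h (4 dpf) at 28 °C; spontaneous tail coiling was scored at 25 hpf. Morphological features from automated image analysis (FishInspector), heart rate and locomotor response were fitted with drc models. Quantal endpoints were dichotomised at 2.5 SD from controls and fitted with a log-logistic model; heart rate, pigmentation and STC were normalised to the replicate control mean. Betamethasone was tested as betamethasone dipropionate, diflorasone as diflorasone diacetate.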

Danio rerio embryo [2] = assay: EC20 LMR dark; higher = less potent; conditions: exposure time: 4 dpf
Experimental: as §1

Danio rerio embryo [3] = assay: EC10 Eye-jaw distance_Decrease; higher = less potent; conditions: exposure time: 4 dpf
Experimental: as §1

Danio rerio embryo [4] = assay: EC20 Eye-jaw distance_Decrease; higher = less potent; conditions: exposure time: 4 dpf
Experimental: as §1

Danio rerio embryo [5] = conditions: exposure time: 4 dpf
Experimental: as §1

Danio rerio embryo [6] = assay: EC10 Otolith-eye distance_Decrease; higher = less potent; conditions: exposure time: 4 dpf
Experimental: as §1

Danio rerio embryo [7] = tested on: Danio rerio embryo
Experimental: as §1

Danio rerio embryo [8] = assay: EC20 Body length_Decrease; higher = less potent
Experimental: as §1

Danio rerio embryo [9] = assay: EC20 Bladder size_Decrease; higher = less potent; conditions: exposure time: 4 dpf
Experimental: as §1

Danio rerio embryo [10] = assay: EC50 Eye size_Decrease
Experimental: as §1

Danio rerio embryo [11] = assay: EC10 Bladder size_Decrease; higher = less potent; conditions: exposure time: 4 dpf
Experimental: as §1

Danio rerio embryo [12] = assay: EC20 Curvature_Increase; higher = less potent
Experimental: as §1

Danio rerio embryo [13] = assay: EC50 Eye-jaw distance_Decrease; conditions: exposure time: 4 dpf
Experimental: as §1

Danio rerio embryo [14] = assay: EC10 LMR dark; higher = less potent; conditions: exposure time: 4 dpf
Experimental: as §1

Danio rerio embryo [15] = assay: EC50 Otolith-eye distance_Decrease; conditions: exposure time: 4 dpf
Experimental: as §1

Danio rerio embryo [16] = assay: EC10 Curvature_Increase; higher = less potent
Experimental: as §1

Danio rerio embryo [17] = assay: EC50 Yolk sac size_Increase; conditions: exposure time: 4 dpf
Experimental: as §1

Danio rerio embryo [18] = assay: EC20 Otolith-eye distance_Decrease; higher = less potent; conditions: exposure time: 4 dpf
Experimental: as §1

Danio rerio embryo [19] = assay: EC20 Pericard size_Increase; higher = less potent
Experimental: as §1

Danio rerio embryo [20] = assay: EC50 Bladder size_Decrease; conditions: exposure time: 4 dpf
Experimental: as §1

Danio rerio embryo [21] = assay: EC10 Body length_Decrease; higher = less potent
Experimental: as §1

Danio rerio embryo [22] = assay: EC20 Any effect; higher = less potent
Experimental: as §1

Danio rerio embryo [23] = assay: EC50 Pericard size_Increase
Experimental: as §1

Danio rerio embryo [24] = assay: EC10 Pericard size_Increase; higher = less potent
Experimental: as §1

Danio rerio embryo [25] = assay: EC10 Yolk sac size_Increase; higher = less potent; conditions: exposure time: 4 dpf
Experimental: as §1

Danio rerio embryo [26] = assay: EC50 Body length_Decrease
Experimental: as §1

Danio rerio embryo [27] = assay: EC20 Yolk sac size_Increase; higher = less potent; conditions: exposure time: 4 dpf
Experimental: as §1

Danio rerio embryo [28] = assay: spontaneous tail coiling frequency (coils/min/embryo); higher = more spontaneous movement; conditions: 25 hpf
Experimental: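 Spontaneous tail coilings of zebrafish embryos exposed from 2 hpf were recorded at 24-25 hpf in 1-min videos and detected by a KNIME workflow from grey-value variance. Betamethasone was tested as the dipropionate, diflorasone as the diacetate.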

Danio rerio embryo [29] = assay: EC10 Any effect; higher = less potent
Experimental: as §1

O=C(O)CCc1nc(-c2ccccc2)c(-c2ccccc2)o1 [Oxaprozin]
Conditions	EC10 Any effect [µM]	EC10 Body length Decrease [µM]	EC10 Curvature Increase [µM]	EC10 Pericard size Increase [µM]	EC20 Any effect [µM]	EC20 Body length Decrease [µM]	EC20 Curvature Increase [µM]	EC20 Pericard size Increase [µM]	EC50 Any effect [µM]	EC50 Body length Decrease [µM]	EC50 Curvature Increase [µM]	EC50 Eye size Decrease [µM]	EC50 Pericard size Increase [µM]	EC50 Pigmentation increase [µM]	spontaneous tail coiling frequency
Danio rerio embryo [1], exposure time: 2 dpf	–	–	–	–	–	–	–	–	–	–	61.4	–	–	–	–
Danio rerio embryo [1], exposure time: 4 dpf	–	–	–	–	–	–	–	–	–	–	30.8	–	–	–	–
Danio rerio embryo [7], exposure time: 2 dpf	–	–	–	–	–	–	–	–	30.2	–	–	–	–	–	–
Danio rerio embryo [7], exposure time: 4 dpf	–	–	–	–	–	–	–	–	20.2	–	–	–	–	35.6	–
Danio rerio embryo [8], exposure time: 2 dpf	–	–	–	–	–	29.3	–	–	–	–	–	–	–	–	–
Danio rerio embryo [8], exposure time: 4 dpf	–	–	–	–	–	21.8	–	–	–	–	–	–	–	–	–
Danio rerio embryo [10], exposure time: 2 dpf	–	–	–	–	–	–	–	–	–	–	–	78.1	–	–	–
Danio rerio embryo [10], exposure time: 4 dpf	–	–	–	–	–	–	–	–	–	–	–	26.7	–	–	–
Danio rerio embryo [12], exposure time: 2 dpf	–	–	–	–	–	–	38	–	–	–	–	–	–	–	–
Danio rerio embryo [12], exposure time: 4 dpf	–	–	–	–	–	–	24.8	–	–	–	–	–	–	–	–
Danio rerio embryo [16], exposure time: 2 dpf	–	–	28.7	–	–	–	–	–	–	–	–	–	–	–	–
Danio rerio embryo [16], exposure time: 4 dpf	–	–	21.8	–	–	–	–	–	–	–	–	–	–	–	–
Danio rerio embryo [19], exposure time: 2 dpf	–	–	–	–	–	–	–	38.6	–	–	–	–	–	–	–
Danio rerio embryo [19], exposure time: 4 dpf	–	–	–	–	–	–	–	14.1	–	–	–	–	–	–	–
Danio rerio embryo [21], exposure time: 2 dpf	–	25.1	–	–	–	–	–	–	–	–	–	–	–	–	–
Danio rerio embryo [21], exposure time: 4 dpf	–	19.3	–	–	–	–	–	–	–	–	–	–	–	–	–
Danio rerio embryo [22], exposure time: 2 dpf	–	–	–	–	19.3	–	–	–	–	–	–	–	–	–	–
Danio rerio embryo [22], exposure time: 4 dpf	–	–	–	–	15.3	–	–	–	–	–	–	–	–	–	–
Danio rerio embryo [23], exposure time: 2 dpf	–	–	–	–	–	–	–	–	–	–	–	–	55.9	–	–
Danio rerio embryo [23], exposure time: 4 dpf	–	–	–	–	–	–	–	–	–	–	–	–	19.1	–	–
Danio rerio embryo [24], exposure time: 2 dpf	–	–	–	31.1	–	–	–	–	–	–	–	–	–	–	–
Danio rerio embryo [24], exposure time: 4 dpf	–	–	–	11.8	–	–	–	–	–	–	–	–	–	–	–
Danio rerio embryo [26], exposure time: 2 dpf	–	–	–	–	–	–	–	–	–	38	–	–	–	–	–
Danio rerio embryo [26], exposure time: 4 dpf	–	–	–	–	–	–	–	–	–	27.1	–	–	–	–	–
Danio rerio embryo [28], 15.2 µM	–	–	–	–	–	–	–	–	–	–	–	–	–	–	4.43
Danio rerio embryo [28], 17 µM	–	–	–	–	–	–	–	–	–	–	–	–	–	–	3.98
Danio rerio embryo [28], 22.7 µM	–	–	–	–	–	–	–	–	–	–	–	–	–	–	4.29
Danio rerio embryo [28], 34.1 µM	–	–	–	–	–	–	–	–	–	–	–	–	–	–	4.85
Danio rerio embryo [28], 51.1 µM	–	–	–	–	–	–	–	–	–	–	–	–	–	–	5.84
Danio rerio embryo [28], 68.2 µM	–	–	–	–	–	–	–	–	–	–	–	–	–	–	4.34
Danio rerio embryo [28], 85.2 µM	–	–	–	–	–	–	–	–	–	–	–	–	–	–	8.82
Danio rerio embryo [28], 102.3 µM	–	–	–	–	–	–	–	–	–	–	–	–	–	–	6.78
Danio rerio embryo [29], exposure time: 2 dpf	14.9	–	–	–	–	–	–	–	–	–	–	–	–	–	–
Danio rerio embryo [29], exposure time: 4 dpf	13	–	–	–	–	–	–	–	–	–	–	–	–	–	–

Conditions	EC10 Bladder size Decrease [µM]	EC10 Eye-jaw distance Decrease [µM]	EC10 LMR dark [µM]	EC10 Otolith-eye distance Decrease [µM]	EC10 Yolk sac size Increase [µM]	EC20 Bladder size Decrease [µM]	EC20 Eye-jaw distance Decrease [µM]	EC20 LMR dark [µM]	EC20 Otolith-eye distance Decrease [µM]	EC20 Yolk sac size Increase [µM]	EC50 Bladder size Decrease [µM]	EC50 Eye-jaw distance Decrease [µM]	EC50 LMR dark [µM]	EC50 Otolith-eye distance Decrease [µM]	EC50 Yolk sac size Increase [µM]
Danio rerio embryo [2]	–	–	–	–	–	–	–	13.3	–	–	–	–	–	–	–
Danio rerio embryo [3]	–	12.7	–	–	–	–	–	–	–	–	–	–	–	–	–
Danio rerio embryo [4]	–	–	–	–	–	–	15.4	–	–	–	–	–	–	–	–
Danio rerio embryo [5]	–	–	–	–	–	–	–	–	–	–	–	–	16.2	–	–
Danio rerio embryo [6]	–	–	–	16.5	–	–	–	–	–	–	–	–	–	–	–
Danio rerio embryo [9]	–	–	–	–	–	11.8	–	–	–	–	–	–	–	–	–
Danio rerio embryo [11]	11.5	–	–	–	–	–	–	–	–	–	–	–	–	–	–
Danio rerio embryo [13]	–	–	–	–	–	–	–	–	–	–	–	21.5	–	–	–
Danio rerio embryo [14]	–	–	11.8	–	–	–	–	–	–	–	–	–	–	–	–
Danio rerio embryo [15]	–	–	–	–	–	–	–	–	–	–	–	–	–	24.8	–
Danio rerio embryo [17]	–	–	–	–	–	–	–	–	–	–	–	–	–	–	22.6
Danio rerio embryo [18]	–	–	–	–	–	–	–	–	19.2	–	–	–	–	–	–
Danio rerio embryo [20]	–	–	–	–	–	–	–	–	–	–	12.2	–	–	–	–
Danio rerio embryo [25]	–	–	–	–	13.4	–	–	–	–	–	–	–	–	–	–
Danio rerio embryo [27]	–	–	–	–	–	–	–	–	–	16.3	–	–	–	–	–
